One sequence from PMC12998938, “Neutrophil store-operated Ca^2+ entry: A correctable biomarker of cystic fibrosis lung disease progression” (Journal of cystic fibrosis : official journal of the …, 2025) can be followed below.

For one assay, the system named is Orai3. The experiment in a line: SOCE in triple knockout HEK293T cells transfected with Orai3. The class given is cell-based. The source says:
(§1) We hypothesized that inhibiting SOCE in CF neutrophils may reduce the secretion of neutrophil elastase and other proteins associated with CF lung disease. To validate ELD607’s specificity for Orai1 over Orai2 and Orai3, we first evaluated ELD607 function in HEK293T cells that had Orai1, Orai2 and Orai3 stably knocked out. […] Next we evaluated ELD607’s ability to inhibit SOCE in non-CF and CF neutrophils.
(§2) Supplemental figure 3. […] Dose responses of thapsigargin-induced changes in cytoplasmic Ca^2+ concentrations. These studies were performed in HEK293T where Orai1, Orai2 and Orai3 had been stably knocked down (triple knockout cells, TKO) or in TKO cells that were transiently transfected with Orai1, Orai2 or Orai3 as indicated. All data are from 7-9 replicates per data point from 3 separate experiments.

The subject of a further assay is Orai2. As to the kind of experiment: SOCE in triple knockout HEK293T cells transfected with Orai2. In kind it is cell-based.
Text: as §1, §2

The test system of a further assay is CF neutrophils. As to the kind of experiment: Neutrophil degranulation multiplex assay, CF neutrophils. The class given is cell-based, human. The note with it: 3 h, 1 μM thapsigargin 30 min, vs vehicle, paired t-test. On the procedure: Neutrophils were immediately isolated by negative selection from deidentified blood samples using an EasySep human neutrophil isolation kit (Stem Cell Technologies) as described. Cytosolic Ca^2+ was measured using Fluo-4 as described. Protein lysate from isolated blood neutrophils was characterized by liquid chromatography with tandem mass spectrometry (LC-MS/MS) as described. Degranulation products in media were quantified by Luminex assay using a custom Bio-Plex human kit (BioRad) per the manufacturer’s protocol […]. Detailed methods for all experiments and measurements are provided in an online data supplement.
Multiple neutrophil functions, including neutrophil degranulation, are Ca^2+ dependent. Neutrophil degranulation results in an increase in several proteases in the lung, including neutrophil elastase, a key driver of CF lung damage. Accordingly, we investigated the impact of ELD607 on neutrophil degranulation as a marker of Ca^2+-dependent neutrophilic function. We used a multiplex assay to quantify key granule proteins released into media after a 3 h pretreatment with 10 μM ELD607 or vehicle control followed by a 30 min stimulation with 1 μM thapsigargin. Levels of myeloperoxidase (MPO; primary granules), lactoferrin (specific granules) and matrix metalloproteinase-9 (MMP9; tertiary granules) release were similar between non-CF and CF neutrophils (Fig. 4A–C).
Fig. 4. ELD607 inhibits degranulation in non-CF and CF neutrophils. Neutrophil degranulation (A-C) was assayed by measuring the concentration of representative constituents of (A) primary granules, MPO (non-CF, n = 9; CF, n = 13); (B) secondary granules, lactoferrin (non-CF, n = 12; CF, n = 17) and (C) tertiary granules, MMP-9 (non-CF, n = 9; CF, n = 12). […]
Multiplex assay. […] Supernatant was collected and analyzed for a panel of neutrophil granule proteins (MPO, lactoferrin, MMP9) using a Bio-Plex human kit (BioRad) per the manufacturer’s protocol. Plates were then analyzed using a Bio-Plex MAGPIX System (BioRad).

[1] abbreviates: discussion summary of supplemental figure 3.

With “VHDIVNMLIRG [ELD607, size-optimized SPLUNC1/α6 peptidomimetic]”, the “sensitivity of SOCE to ELD607” value in the assay with Orai3 (TKO + Orai3, thapsigargin, dose response, 7-9 replicates) is “relatively insensitive”; in the assay on Orai2 (TKO + Orai2, thapsigargin, dose response, 7-9 replicates), “relatively insensitive”. In addition, the “specificity for Orai1: effect on Orai3” value in the assay on Orai3 (setting [1]) is “little effect on Orai2 and Orai3”. Besides, in the assay on Orai2 (setting [1]), the “specificity for Orai1: effect on Orai2” value is “little effect on Orai2 and Orai3”. For the same sequence, the “MMP9 release (tertiary granules)” value in the assay on CF neutrophils (n = 12, 10 μM) is “significantly reduced”. Also, the “MPO release (primary granules)” value in the assay on CF neutrophils (n = 13, 10 μM) is recorded as “significantly reduced”. Besides, the “lactoferrin release (specific/secondary granules)” value in the assay with CF neutrophils (n = 17, 10 μM) is reported as “significantly reduced”.
